Experimental data from patent US11806323B2, “Topical anesthetics” (PTC Innovations, LLC, priority 2022, dated 2023).
Like-named read-outs stand apart in the source and are kept apart here.

Legend:
Nav1.7 = molecular target: T1, Nav1.7 (Homo sapiens, UniProt Q15858); assay: Patch clamp testing, Nav1.7 ion channel inhibition (SyncroPatch 384PE); type: cell-based
T1 construct: ChanTest Corp; host or cells: CHO cells (Chinese hamster)
Procedure: An examination of the in vitro effects of the compounds consistent with the present disclosure on ion channels Nav1.5 (a sodium voltage-gated channel alpha subunit found predominantly in cardiac muscle cells) and Nav1.7 (a sodium voltage-gated channel alpha subunit normally expressed in high levels in nociceptive pain neurons at dorsal root ganglion (DRG) and trigeminal ganglion and in sympathetic ganglion neurons) was performed using adult epithelial (ovarian) tissue CHO cells of Chinese hamsters (C. griseus) […] transfected with human ion channel cDNAs (ATCC, Manassas, VA; ChanTest Corp., Cleveland, OH). Cells were cultured in Ham's F-12 medium supplemented with 10% fetal bovine serum, 100 U/mL penicillin G sodium, 100 μg/mL streptomycin sulfate, and 500 μg/mL G418 aminoglycoside antibiotic.
(§1) Each compound was analyzed at concentrations of 1000 μM, 300 μM, 100 μM, 30 μM, 10 μM, 3 μM, 1 μM, and 0.3 μM. […] All tested compound formulations contained 0.3% DMSO. Each concentration of each compound was loaded into a well of a 384-well polypropylene compound plate using an automated liquid handling system (Integra Assist Plus, Integra) and then placed in the plate well of SyncroPatch 384PE (SP384PE; Nanion Technologies, Livingston, NJ) immediately before application of the cells.
Observed IC50 values of the channel current inhibition for each test article are provided in Table 8 (Nav1.5 ion channel inhibition) and Table 9 (Nav1.7 ion channel inhibition).

Nav1.5 = molecular target: T2, Nav1.5 (Homo sapiens, UniProt Q14524); assay: Patch clamp testing, Nav1.5 ion channel inhibition (SyncroPatch 384PE); type: cell-based
T2 construct: ChanTest Corp; host or cells: CHO cells (Chinese hamster)
Procedure: Cells were cultured in Ham's F-12 medium supplemented with 10% fetal bovine serum, 100 U/mL penicillin G sodium, 100 μg/mL streptomycin sulfate, and 500 μg/mL G418 aminoglycoside antibiotic.
as §1

[1] = TP1A = Tonic Block, CHO cells transfected with human ion channel cDNA, 0.3% DMSO, read-out: Inhibition of Nav1.7 Ion Channel IC50, TP1A
[2] = TP2A = Inactivated State-Dependent Block, CHO cells transfected with human ion channel cDNA, 0.3% DMSO, read-out: Inhibition of Nav1.7 Ion Channel IC50, TP2A
[3] = TP25B = Use-Dependent Block, CHO cells transfected with human ion channel cDNA, 0.3% DMSO, read-out: Inhibition of Nav1.7 Ion Channel IC50, TP25B
[4] = Inhibition of Nav1.5 Ion Channel IC50, TP1A, TP1A = Tonic Block, CHO cells transfected with human ion channel cDNA, 0.3% DMSO
[5] = Inhibition of Nav1.5 Ion Channel IC50, TP2A, TP2A = Inactivated State-Dependent Block, CHO cells transfected with human ion channel cDNA, 0.3% DMSO
[6] = Inhibition of Nav1.5 Ion Channel IC50, TP25B, TP25B = Use-Dependent Block, CHO cells transfected with human ion channel cDNA, 0.3% DMSO
[7] = read-out: Inhibition of Nav1.7 Ion Channel IC50, TP25B, TP25B = Use-Dependent Block, CHO cells transfected with human ion channel cDNA, 0.3% DMSO

T2 sequence (Q14524 whole entry): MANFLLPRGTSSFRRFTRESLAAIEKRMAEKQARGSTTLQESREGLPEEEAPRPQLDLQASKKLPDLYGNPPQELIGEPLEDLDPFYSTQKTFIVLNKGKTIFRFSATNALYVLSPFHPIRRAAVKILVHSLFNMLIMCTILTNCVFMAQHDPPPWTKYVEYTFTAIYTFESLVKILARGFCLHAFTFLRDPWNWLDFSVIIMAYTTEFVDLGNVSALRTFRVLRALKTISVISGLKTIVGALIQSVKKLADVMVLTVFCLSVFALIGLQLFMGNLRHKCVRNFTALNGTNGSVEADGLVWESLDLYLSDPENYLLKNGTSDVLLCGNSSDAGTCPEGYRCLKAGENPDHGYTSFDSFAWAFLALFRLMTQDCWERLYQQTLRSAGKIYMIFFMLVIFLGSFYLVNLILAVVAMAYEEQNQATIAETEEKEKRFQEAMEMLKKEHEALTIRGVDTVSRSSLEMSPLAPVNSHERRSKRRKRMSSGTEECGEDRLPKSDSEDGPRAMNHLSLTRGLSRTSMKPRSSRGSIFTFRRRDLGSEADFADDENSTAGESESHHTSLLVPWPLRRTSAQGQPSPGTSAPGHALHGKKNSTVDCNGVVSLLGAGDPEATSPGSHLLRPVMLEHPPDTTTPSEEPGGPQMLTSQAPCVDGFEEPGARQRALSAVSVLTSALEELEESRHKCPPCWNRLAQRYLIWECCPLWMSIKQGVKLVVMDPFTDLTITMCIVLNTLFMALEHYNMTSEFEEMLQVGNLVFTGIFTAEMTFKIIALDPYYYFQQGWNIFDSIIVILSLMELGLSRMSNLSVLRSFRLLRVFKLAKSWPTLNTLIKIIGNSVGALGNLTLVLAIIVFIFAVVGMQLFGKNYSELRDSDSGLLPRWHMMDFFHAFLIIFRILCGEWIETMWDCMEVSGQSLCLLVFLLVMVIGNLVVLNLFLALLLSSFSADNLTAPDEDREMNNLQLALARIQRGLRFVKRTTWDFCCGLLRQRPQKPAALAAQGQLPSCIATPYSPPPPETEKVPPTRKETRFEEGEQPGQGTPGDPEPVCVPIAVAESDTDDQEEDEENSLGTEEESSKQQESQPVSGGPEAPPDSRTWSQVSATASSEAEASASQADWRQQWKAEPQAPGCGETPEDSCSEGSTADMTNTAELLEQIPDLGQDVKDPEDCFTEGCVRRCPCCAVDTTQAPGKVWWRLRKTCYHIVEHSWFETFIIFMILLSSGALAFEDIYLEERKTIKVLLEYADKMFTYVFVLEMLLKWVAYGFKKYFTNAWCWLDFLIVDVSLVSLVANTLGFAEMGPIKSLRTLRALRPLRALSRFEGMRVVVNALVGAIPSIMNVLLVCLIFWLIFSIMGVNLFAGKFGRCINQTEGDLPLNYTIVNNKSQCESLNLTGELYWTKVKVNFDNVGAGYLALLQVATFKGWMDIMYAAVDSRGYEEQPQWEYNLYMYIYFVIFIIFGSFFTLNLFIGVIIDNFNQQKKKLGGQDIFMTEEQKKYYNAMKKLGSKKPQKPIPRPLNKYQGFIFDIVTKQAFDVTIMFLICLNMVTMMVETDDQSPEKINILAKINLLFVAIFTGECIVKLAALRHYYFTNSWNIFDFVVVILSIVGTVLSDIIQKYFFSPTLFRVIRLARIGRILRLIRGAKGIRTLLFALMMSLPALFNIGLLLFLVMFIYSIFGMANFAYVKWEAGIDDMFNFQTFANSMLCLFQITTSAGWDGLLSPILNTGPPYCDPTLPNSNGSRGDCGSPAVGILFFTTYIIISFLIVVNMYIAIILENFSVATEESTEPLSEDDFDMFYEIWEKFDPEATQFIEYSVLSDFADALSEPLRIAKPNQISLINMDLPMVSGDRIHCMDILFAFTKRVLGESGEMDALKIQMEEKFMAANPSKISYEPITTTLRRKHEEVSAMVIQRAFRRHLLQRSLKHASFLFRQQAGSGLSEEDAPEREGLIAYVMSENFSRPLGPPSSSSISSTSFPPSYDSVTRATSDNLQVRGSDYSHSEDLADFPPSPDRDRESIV
T1 sequence (Q15858 whole entry): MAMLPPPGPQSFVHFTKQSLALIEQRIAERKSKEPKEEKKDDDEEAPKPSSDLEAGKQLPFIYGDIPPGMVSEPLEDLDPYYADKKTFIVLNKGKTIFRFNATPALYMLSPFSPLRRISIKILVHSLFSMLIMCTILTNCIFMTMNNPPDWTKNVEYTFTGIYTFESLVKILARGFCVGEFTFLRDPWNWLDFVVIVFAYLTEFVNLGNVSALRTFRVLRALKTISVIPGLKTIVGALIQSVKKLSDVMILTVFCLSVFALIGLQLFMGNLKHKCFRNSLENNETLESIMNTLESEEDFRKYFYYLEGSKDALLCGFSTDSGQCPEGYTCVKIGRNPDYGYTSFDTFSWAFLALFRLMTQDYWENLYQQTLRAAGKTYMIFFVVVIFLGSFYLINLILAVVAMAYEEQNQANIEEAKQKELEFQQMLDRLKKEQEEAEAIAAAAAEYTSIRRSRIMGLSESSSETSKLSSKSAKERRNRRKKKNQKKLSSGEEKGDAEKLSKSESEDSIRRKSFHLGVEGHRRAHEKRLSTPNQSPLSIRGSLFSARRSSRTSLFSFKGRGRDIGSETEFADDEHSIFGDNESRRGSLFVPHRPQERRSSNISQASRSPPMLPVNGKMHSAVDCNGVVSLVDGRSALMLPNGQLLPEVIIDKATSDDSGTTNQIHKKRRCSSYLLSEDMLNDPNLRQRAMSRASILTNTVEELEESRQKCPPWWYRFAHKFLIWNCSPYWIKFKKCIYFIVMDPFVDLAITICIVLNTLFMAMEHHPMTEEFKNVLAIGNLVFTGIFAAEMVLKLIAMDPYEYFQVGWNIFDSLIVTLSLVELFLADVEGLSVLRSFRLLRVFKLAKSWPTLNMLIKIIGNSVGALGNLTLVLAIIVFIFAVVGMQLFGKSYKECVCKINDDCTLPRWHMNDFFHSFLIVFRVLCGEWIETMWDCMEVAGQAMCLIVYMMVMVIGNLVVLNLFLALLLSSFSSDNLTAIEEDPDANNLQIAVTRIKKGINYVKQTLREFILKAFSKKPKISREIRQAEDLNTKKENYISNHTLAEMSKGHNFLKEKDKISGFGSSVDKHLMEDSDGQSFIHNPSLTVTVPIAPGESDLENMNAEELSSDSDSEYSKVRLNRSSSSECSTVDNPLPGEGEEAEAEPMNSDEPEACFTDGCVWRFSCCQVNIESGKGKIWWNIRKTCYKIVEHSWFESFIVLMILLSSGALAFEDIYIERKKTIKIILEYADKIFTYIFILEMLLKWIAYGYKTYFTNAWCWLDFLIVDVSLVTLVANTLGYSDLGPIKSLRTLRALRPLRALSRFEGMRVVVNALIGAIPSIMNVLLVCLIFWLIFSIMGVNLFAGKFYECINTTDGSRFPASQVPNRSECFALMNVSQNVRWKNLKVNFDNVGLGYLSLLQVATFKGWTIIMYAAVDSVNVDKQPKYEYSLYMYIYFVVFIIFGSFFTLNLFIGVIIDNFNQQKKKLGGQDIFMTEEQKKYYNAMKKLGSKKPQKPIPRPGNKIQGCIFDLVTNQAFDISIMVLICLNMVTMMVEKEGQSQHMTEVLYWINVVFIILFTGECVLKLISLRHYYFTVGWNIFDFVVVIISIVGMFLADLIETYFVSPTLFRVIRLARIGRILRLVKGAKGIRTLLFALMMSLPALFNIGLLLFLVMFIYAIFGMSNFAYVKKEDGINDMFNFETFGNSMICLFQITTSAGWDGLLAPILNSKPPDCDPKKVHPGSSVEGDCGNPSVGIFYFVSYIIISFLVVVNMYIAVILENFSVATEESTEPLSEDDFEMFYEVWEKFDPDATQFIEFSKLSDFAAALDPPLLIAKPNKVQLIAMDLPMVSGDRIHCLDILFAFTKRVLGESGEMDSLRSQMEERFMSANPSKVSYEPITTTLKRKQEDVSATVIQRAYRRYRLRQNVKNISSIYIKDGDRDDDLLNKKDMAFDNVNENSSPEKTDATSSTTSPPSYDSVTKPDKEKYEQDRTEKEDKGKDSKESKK

For COc1ccc(N(C)C(=O)CN(CCN(C)C)c2ccccc2)cc1 [Compound 2290], which IC50 (Nav1.7; [1]) is on record?
The IC50 was greater than 1000 µM.

What about the IC50 (Nav1.7; [2]) of the same molecule?
Its IC50 is greater than 1000 µM.

And the IC50 (Nav1.7; [3])?
The IC50 was greater than 1000 µM.

What about the IC50 (Nav1.5; [4]) of the same molecule?
Its IC50 is greater than 1000 µM.

What about the IC50 (Nav1.5; [5]) of the same molecule?
The IC50 was greater than 1000 µM.

And the IC50 (Nav1.5; [6])?
Its IC50 is greater than 1000 µM.

Which results are given for COc1ccc(N(C)C(=O)CN(CCN(C)C)c2cccc(Cl)c2)cc1 [Compound 2291]?
IC50 (Nav1.7; [1]): 561 µM; IC50 (Nav1.7; [2]): 463 µM; IC50 (Nav1.7; [3]): 490 µM; IC50 (Nav1.5; [4]): 808 µM; IC50 (Nav1.5; [5]): 740 µM; IC50 (Nav1.5; [6]): 693 µM

With COc1ccc(N(C)C(=O)CN(CCN(C)C)c2ccc(Cl)c(Cl)c2)cc1 [Compound 2292] as the molecule, how does the IC50 (Nav1.7; [1]) read?
Its IC50 is 165 µM.

What about the IC50 (Nav1.7; [2]) of the same molecule?
Its IC50 is 162 µM.

And the IC50 (Nav1.7; [3])?
Its IC50 is 167 µM.

What about the IC50 (Nav1.5; [4]) of the same molecule?
Its IC50 is 208 µM.

And the IC50 (Nav1.5; [5])?
Its IC50 is 216 µM.

What about the IC50 (Nav1.5; [6]) of the same molecule?
The IC50 was 193 µM.

Which results are given for COc1ccc(N(C)C(=O)CN(CCN(C)C)c2ccccc2OC)cc1 [Compound 2293]?
IC50 (Nav1.7): > 1000 µM; IC50 (Nav1.7; [1]): > 1000 µM; IC50 (Nav1.7; [7]): > 1000 µM; IC50 (Nav1.5): > 1000 µM; IC50 (Nav1.5; [5]): > 1000 µM; IC50 (Nav1.5; [6]): > 1000 µM

With COc1ccc(N(CCN(C)C)CC(=O)N(C)c2ccc(OC)cc2)cc1 [Compound 2294] as the molecule, how does the IC50 (Nav1.7; [1]) read?
The IC50 was greater than 1000 µM.

What about the IC50 (Nav1.7; [2]) of the same molecule?
The IC50 was greater than 1000 µM.

What about the IC50 (Nav1.7; [3]) of the same molecule?
The IC50 was greater than 1000 µM.

And the IC50 (Nav1.5; [4])?
The IC50 was greater than 1000 µM.

And the IC50 (Nav1.5; [5])?
The IC50 was greater than 1000 µM.

And the IC50 (Nav1.5; [6])?
Its IC50 is greater than 1000 µM.

Which IC50 (Nav1.7) does the source give for COc1ccc(N(C)C(=O)CN(CCN(C)C)c2ccccc2C)cc1 [Compound 2295] here?
The IC50 was greater than 1000 µM.

What about the IC50 (Nav1.7; [1]) of the same molecule?
The IC50 was greater than 1000 µM.

What about the IC50 (Nav1.7; [7]) of the same molecule?
The IC50 was greater than 1000 µM.

What about the IC50 (Nav1.5) of the same molecule?
The IC50 was greater than 1000 µM.

And the IC50 (Nav1.5; [5])?
The IC50 was greater than 1000 µM.

And the IC50 (Nav1.5; [6])?
Its IC50 is greater than 1000 µM.

With COc1ccc(N(C)C(=O)CN(CCN(C)C)c2cccc(OC(F)(F)F)c2)cc1 [Compound 2296] as the molecule, how does the IC50 (Nav1.7; [1]) read?
Its IC50 is 265 µM.

What about the IC50 (Nav1.7; [2]) of the same molecule?
The IC50 was 231 µM.

And the IC50 (Nav1.7; [3])?
Its IC50 is 210 µM.

And the IC50 (Nav1.5; [4])?
The IC50 was 254 µM.

And the IC50 (Nav1.5; [5])?
The IC50 was 236 µM.

And the IC50 (Nav1.5; [6])?
The IC50 was 222 µM.

Which results are given for COc1ccc(N(C)C(=O)CN(CCN(C)C)c2ccc(Cl)c(C(F)(F)F)c2)cc1 [Compound 2297]?
IC50 (Nav1.7; [1]): 74.7 µM; IC50 (Nav1.7; [2]): 66.2 µM; IC50 (Nav1.7; [3]): 54.4 µM; IC50 (Nav1.5; [4]): 95.1 µM; IC50 (Nav1.5; [5]): 91.2 µM; IC50 (Nav1.5; [6]): 72.7 µM

What does the source list for COc1ccc(N(C)C(=O)CN(CCN(C)C)c2cc(Cl)ccc2Cl)cc1 [Compound 2298]?
IC50 (Nav1.7; [1]): 273 µM; IC50 (Nav1.7; [2]): 229 µM; IC50 (Nav1.7; [3]): 220 µM; IC50 (Nav1.5; [4]): 249 µM; IC50 (Nav1.5; [5]): 240 µM; IC50 (Nav1.5; [6]): 204 µM

Which IC50 (Nav1.7; [1]) does the source give for COc1ccc(N(C)C(=O)CN(CCN(C)C)c2ccc(F)c(Cl)c2)cc1 [Compound 2299] here?
Its IC50 is 393 µM.

And the IC50 (Nav1.7; [2])?
Its IC50 is 315 µM.

And the IC50 (Nav1.7; [3])?
The IC50 was 334 µM.

What about the IC50 (Nav1.5; [4]) of the same molecule?
The IC50 was 515 µM.

What about the IC50 (Nav1.5; [5]) of the same molecule?
Its IC50 is 449 µM.

And the IC50 (Nav1.5; [6])?
Its IC50 is 505 µM.

With COc1ccc(N(C)C(=O)CN(CCN(C)C)c2cccc(Cl)c2F)cc1 [Compound 2300] as the molecule, how does the IC50 (Nav1.7; [1]) read?
Its IC50 is 546 µM.

What about the IC50 (Nav1.7; [2]) of the same molecule?
The IC50 was 673 µM.

What about the IC50 (Nav1.7; [3]) of the same molecule?
The IC50 was 626 µM.

What about the IC50 (Nav1.5; [4]) of the same molecule?
Its IC50 is 327 µM.

And the IC50 (Nav1.5; [5])?
Its IC50 is 307 µM.

What about the IC50 (Nav1.5; [6]) of the same molecule?
Its IC50 is 259 µM.

What does the source list for COc1ccc(N(C)C(=O)CN(CCN(C)C)c2ccccc2C(F)(F)F)cc1 [Compound 2301]?
IC50 (Nav1.7; [1]): 312 µM; IC50 (Nav1.7; [2]): 275 µM; IC50 (Nav1.7; [3]): 235 µM; IC50 (Nav1.5; [4]): 265 µM; IC50 (Nav1.5; [5]): 243 µM; IC50 (Nav1.5; [6]): 154 µM

With COc1ccc(N(C)C(=O)CN(CCN)c2ccccc2)cc1 [Compound 2302] as the molecule, how does the IC50 (Nav1.7; [1]) read?
Its IC50 is 70.2 µM.

And the IC50 (Nav1.7; [2])?
Its IC50 is 77.9 µM.

What about the IC50 (Nav1.7; [3]) of the same molecule?
Its IC50 is 55.4 µM.

What about the IC50 (Nav1.5; [4]) of the same molecule?
Its IC50 is 124 µM.

And the IC50 (Nav1.5; [5])?
Its IC50 is 96.8 µM.

What about the IC50 (Nav1.5; [6]) of the same molecule?
Its IC50 is 75.9 µM.

For COc1ccc(N(C)C(=O)CN(CCN2CCCCC2)c2ccccc2)cc1 [Compound 2303], which IC50 (Nav1.7; [1]) is on record?
Its IC50 is 15 µM.

And the IC50 (Nav1.7; [2])?
Its IC50 is 14.5 µM.

What about the IC50 (Nav1.7; [3]) of the same molecule?
Its IC50 is 13.1 µM.

And the IC50 (Nav1.5; [4])?
The IC50 was 16.6 µM.

And the IC50 (Nav1.5; [5])?
Its IC50 is 13.5 µM.

What about the IC50 (Nav1.5; [6]) of the same molecule?
The IC50 was 9.5 µM.

Which results are given for COc1ccc(N(C)C(=O)CN(CCN2CCN(C)CC2)c2ccccc2)cc1 [Compound 2304]?
IC50 (Nav1.7; [1]): > 1000 µM; IC50 (Nav1.7; [2]): > 1000 µM; IC50 (Nav1.7; [3]): > 1000 µM; IC50 (Nav1.5; [4]): > 1000 µM; IC50 (Nav1.5; [5]): 880 µM; IC50 (Nav1.5; [6]): 670 µM

How did the IC50 (Nav1.7; [1]) turn out when CCN(CC)CC(=O)Nc1c(C)cccc1C [Lidocaine, reference compound] was run?
The IC50 was 408 µM.

What about the IC50 (Nav1.7; [2]) of the same molecule?
Its IC50 is 23.7 µM.

What about the IC50 (Nav1.7; [3]) of the same molecule?
The IC50 was 113 µM.
